These results are taken from publication PMC9266914, “Broad Spectrum Functional Activity of Structurally Related Monoanionic Au(III) Bis(Dithiolene) Complexes” (International Journal of Molecular Sciences, 2022).

The target of test [1] is human serum albumin (HSA) (Homo sapiens, UniProt P02768). Set-up: method as in PMID 26469679, PMID 22835721, PMID 32283915, doi:10.1016/j.jlumin.2011.06.005. Particulars: cited from earlier work.
The subject of test [2] is A2780 ovarian cancer cells. Also on record: method as in PMID 32391537. The note with it: 48 h incubation, MTT; starred values; read-out: IC50 A2780, 48 h; cited from earlier work.
The test system of test [3] is OVCAR8 ovarian cancer cells. Kind of test: MTT cytotoxicity assay in OVCAR8 (cisplatin resistant) ovarian cancer cells. The note with it: 48 h incubation. The class given is cell-based, human. As to the method:
(§1) Cells were exposed to increasing concentrations of the complexes (0.01–100 μM) for 24 and/or 48 h, at 37 °C. The IC50 values were calculated from dose–response curves using the colorimetric MTT assay. […] Most complexes presented a similar cytotoxicity profile compared to Auranofin, but higher activity compared to Cisplatin, and, most importantly, were active in the Cisplatin-resistant OVCAR8 cells (Table 2).
(§2) The cytotoxic activity of the complexes was evaluated in the A2780 (cisplatin sensitive) (Sigma-Aldrich) and OVCAR8 (cisplatin resistant) (ATCC) ovarian cancer cells. Cells were grown in RPMI-1640 medium (Gibco, Thermo Fisher) supplemented with 10% fetal bovine serum (FBS) and were maintained at 37 °C in a humidified atmosphere with 5% CO2. The complexes were initially dissolved in DMSO and then in culture medium to prepare serial dilutions in the range 10^−9–10^−4 M. After 24 and/or 48 h incubation the cellular viability was measured by the colorimetric MTT assay, as previously described.

The test system of test [4] is ΦX174 supercoiled DNA. Kind of test: Electrophoretic mobility of supercoiled DNA. The class given is binding. Particulars: 24 h, 37 °C, in words. As to the method: The potential interaction of the complexes with DNA was evaluated through the assessment of the electrophoretic mobility of supercoiled ϕX174 DNA, using a previously described method. To that end, a mixture was prepared containing 200 ng of supercoiled ϕX174 DNA (Promega) in 10 mM of phosphate buffer (pH 7.2) and increasing concentrations of Cisplatin, as a positive control, or the metal complexes (in a total volume of 20 μL). The mixture was incubated for 24 h at 37 °C, in the dark. As controls, samples having non-incubated plasmid and plasmid incubated with DMSO were also prepared. Then, all samples were prepared for electrophoresis through the addition of 2 μL of 10× DNA loading buffer (Applichem) and loading on an 0.8% agarose gel in TBE buffer (Thermo Fisher Scientific, Waltham, MA, USA). The gel was run at 90 V for approximately 3 h, stained using a 3× GelRed® (Biotium) solution in H2O, and the bands visualized using an AlphaImagerEP (Alpha Innotech) under UV light.

Test [5] concerns A2780 ovarian cancer cells. Kind of test: MTT cytotoxicity assay in A2780 (cisplatin sensitive) ovarian cancer cells. The test is classed as cell-based, human. Particulars: 24 h incubation, read-out: IC50 A2780, 24 h. As to the method:
as §1, §2
(In general: Tetrazolium assays rely on reduction of a dye to a coloured formazan, in cell work by metabolically active cells.)

Where two headings read alike, the source gives them in different places.

human serum albumin (HSA), sequence (P02768 25-609): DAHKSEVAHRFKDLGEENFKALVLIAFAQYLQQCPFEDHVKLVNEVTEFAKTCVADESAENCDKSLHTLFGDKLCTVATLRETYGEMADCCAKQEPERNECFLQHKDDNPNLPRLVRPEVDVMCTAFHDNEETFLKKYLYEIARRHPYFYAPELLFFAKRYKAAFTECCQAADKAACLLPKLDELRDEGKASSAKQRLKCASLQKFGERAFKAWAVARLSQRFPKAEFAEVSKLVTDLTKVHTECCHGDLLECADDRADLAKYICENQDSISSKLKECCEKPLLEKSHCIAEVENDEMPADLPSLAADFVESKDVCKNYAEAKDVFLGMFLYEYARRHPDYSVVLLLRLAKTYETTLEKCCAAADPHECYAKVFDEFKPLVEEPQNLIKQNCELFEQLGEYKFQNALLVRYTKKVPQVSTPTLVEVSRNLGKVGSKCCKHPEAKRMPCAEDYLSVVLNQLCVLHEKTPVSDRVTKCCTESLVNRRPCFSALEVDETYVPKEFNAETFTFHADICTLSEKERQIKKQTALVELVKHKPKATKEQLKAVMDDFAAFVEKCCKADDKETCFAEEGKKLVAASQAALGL

`N.N.[Cl][Pt][Cl]` [Cisplatin, reference compound]: in test [1], the “binding constant to HSA” value is listed as 10^2 M^−1. Further, the IC50 in test [2] is 3.6 ± 1.25 µM; in test [3], 10.1 ± 2.3 µM; in test [5] it was 21.1 ± 5 µM. Also, the “conformational changes / electrophoretic mobility of DNA” value in test [4] is “able to alter the electrophoretic mobility of the nicked and supercoiled forms of DNA in a dose-dependent way”.

Broadly, the IC50 is the concentration that inhibits the measured activity by half.
